Values of other authors, collected in patent publication US9211305B2, “Pharmaceutical compositions with glycosaminoglycans and use thereof in the treatment of chronic ulcers” (LABORATORIOS FARMACEUTICOS ROVI S.A., priority 2008, dated 2015).

Key:
factor Xa = conditions: commercial products; cited from earlier work
[1] = in vivo; cited from earlier work
[2] = Ph. Eur. 6th Edition; cited from earlier work

Row | Substance | anti-factor Xa activity (factor Xa) | Plasma Half-Life [1] [h] | Plasma Half-Life Range [1] [h] | Anti-coagulating activity [2] [IU/mg]
1 | Dalteparin | 110-210 IU/mg | 2.5 | 2.3 to 2.8 | –
2 | Enoxaparin | 90-125 IU/mg | 4.2 | 4.0 to 4.4 | –
3 | Heparin Sodium | – | – | – | ≥ 150
4 | Nadroparin | – | 3.7 | 3.7 | –
5 | Tinzaparin | 70-120 IU/mg | 3.0 | 3.0 | –
